Results: article PMC8949931, “cADPR Does Not Activate TRPM2” (International Journal of Molecular Sciences, 2022)
pKd: −log10 of the molar value.

Assays:
[1] = target: T1, drTRPM2 (TRPM2 from zebrafish) (Danio rerio, UniProt A0A0R4IMY7); assay: isothermal titration calorimetry (ITC), purified domain, […] °C; type: binding
T1 construct: isolated MHR1/2 domain, residues 1-419 of drTRPM2, N-terminal His6-tag
T1 sequence (A0A0R4IMY7 1-419): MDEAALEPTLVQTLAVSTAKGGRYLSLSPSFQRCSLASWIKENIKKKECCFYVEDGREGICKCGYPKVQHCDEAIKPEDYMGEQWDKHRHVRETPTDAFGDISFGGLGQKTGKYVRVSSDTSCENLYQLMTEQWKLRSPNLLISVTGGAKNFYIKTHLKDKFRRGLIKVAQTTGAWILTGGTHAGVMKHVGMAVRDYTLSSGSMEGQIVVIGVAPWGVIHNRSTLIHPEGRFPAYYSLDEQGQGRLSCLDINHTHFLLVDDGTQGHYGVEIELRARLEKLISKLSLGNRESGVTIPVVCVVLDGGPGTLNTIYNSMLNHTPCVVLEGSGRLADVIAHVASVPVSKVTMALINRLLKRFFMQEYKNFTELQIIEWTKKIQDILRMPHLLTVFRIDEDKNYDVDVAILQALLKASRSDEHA

human TRPM2 = target: T2, human TRPM2 (Homo sapiens, UniProt O94759); assay: whole-cell patch clamp, […] coinfused with […] ADPR; type: cell-based
T2 construct: full-length channel stably expressed in HEK293 cells
T2 sequence (O94759 whole entry, the tested form may be a part): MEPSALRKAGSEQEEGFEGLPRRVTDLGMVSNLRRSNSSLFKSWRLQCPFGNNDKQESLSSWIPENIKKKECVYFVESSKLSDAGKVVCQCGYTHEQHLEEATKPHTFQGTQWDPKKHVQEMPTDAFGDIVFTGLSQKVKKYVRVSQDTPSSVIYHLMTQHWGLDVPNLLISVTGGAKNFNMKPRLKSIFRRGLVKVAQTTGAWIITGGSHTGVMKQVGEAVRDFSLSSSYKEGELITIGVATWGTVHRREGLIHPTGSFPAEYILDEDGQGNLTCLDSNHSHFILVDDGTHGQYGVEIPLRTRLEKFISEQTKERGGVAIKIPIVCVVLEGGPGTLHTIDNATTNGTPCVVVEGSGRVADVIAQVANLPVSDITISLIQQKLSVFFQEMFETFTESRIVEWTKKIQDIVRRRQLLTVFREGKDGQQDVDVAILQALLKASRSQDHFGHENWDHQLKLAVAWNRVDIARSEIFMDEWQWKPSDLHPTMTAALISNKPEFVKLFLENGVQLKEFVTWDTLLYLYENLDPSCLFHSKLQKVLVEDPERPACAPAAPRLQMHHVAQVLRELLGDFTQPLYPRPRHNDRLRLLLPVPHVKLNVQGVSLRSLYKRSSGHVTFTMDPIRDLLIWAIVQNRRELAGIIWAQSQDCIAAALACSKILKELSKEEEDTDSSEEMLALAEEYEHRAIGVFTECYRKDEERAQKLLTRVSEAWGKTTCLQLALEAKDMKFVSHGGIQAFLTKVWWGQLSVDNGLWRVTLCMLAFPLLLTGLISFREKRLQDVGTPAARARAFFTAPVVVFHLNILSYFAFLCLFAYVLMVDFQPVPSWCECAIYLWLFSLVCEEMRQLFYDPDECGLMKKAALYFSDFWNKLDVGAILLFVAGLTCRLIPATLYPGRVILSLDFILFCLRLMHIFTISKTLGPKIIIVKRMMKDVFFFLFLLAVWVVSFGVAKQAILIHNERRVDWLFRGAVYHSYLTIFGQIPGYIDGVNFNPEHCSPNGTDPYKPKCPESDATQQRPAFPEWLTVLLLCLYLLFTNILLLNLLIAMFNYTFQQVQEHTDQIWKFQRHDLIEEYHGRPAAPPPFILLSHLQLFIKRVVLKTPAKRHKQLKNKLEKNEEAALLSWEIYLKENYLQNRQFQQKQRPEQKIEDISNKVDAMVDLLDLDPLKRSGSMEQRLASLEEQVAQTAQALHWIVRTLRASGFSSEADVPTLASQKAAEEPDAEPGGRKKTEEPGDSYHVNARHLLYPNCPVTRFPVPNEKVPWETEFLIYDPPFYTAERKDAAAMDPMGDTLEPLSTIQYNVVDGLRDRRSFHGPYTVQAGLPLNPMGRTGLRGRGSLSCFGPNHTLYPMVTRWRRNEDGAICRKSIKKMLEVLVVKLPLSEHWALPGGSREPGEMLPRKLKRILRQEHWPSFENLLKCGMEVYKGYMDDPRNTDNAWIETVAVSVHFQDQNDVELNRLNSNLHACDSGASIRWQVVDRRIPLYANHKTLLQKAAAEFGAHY

Row | Compound | pKd [1] | whole-cell patch clamp, 1 mM coinfused with 125 μM ADPR (human TRPM2)
1 | Nc1ncnc2c1nc(Br)n2[C@@H]1O[C@H](COP(=O)(O)OP(=O)(O)OC[C@H]2OC(O)[C@H](O)[C@@H]2O)[C@@H](O)[C@H]1O (stereo partly drawn) [8-Br-ADPR] | 5.85 | 8-Br-ADPR and 8-Br-cADPR reduce the ADPR-induced current in TRPM2-expressing HEK293 cells
2 | Nc1ncnc2c1ncn2[C@@H]1O[C@H](COP(=O)(O)OP(=O)(O)OC[C@H]2OC(O)[C@H](O)[C@@H]2O)[C@@H](O)[C@H]1O (stereo partly drawn) [ADPR] | 5.66 | 
